# Measured values: ChEMBL document CHEMBL1909294, “Translating clinical findings into knowledge in drug safety evaluation--drug induced liver injury prediction system (DILIps)” (PLoS Comput Biol, 2011)
# Tests used:
# Hepatotoxicity [1] = test system: Hepatotoxicity;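 as to HepSE bilirubinemia: bilirubinemia hepatic side effect score drawn from the DILIps training data, a prediction system for drug-induced liver injury; call rule not given here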;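 as to HepSE cholecystitis: Cholecystitis-related hepatic side effect score drawn from the DILIps (drug-induced liver injury prediction) training data set; call rule not given here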;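 as to HepSE cholelithiasis: hepatic side effect score for cholelithiasis, drawn from the DILIps training data for predicting drug-induced liver injury; call rule not given here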;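 as to HepSE cirrhosis: cirrhosis hepatic side effect score taken from the DILIps (drug-induced liver injury prediction) training set; call rule not given here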;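 as to HepSE elevated liver function tests: hepatic side effect score for raised liver function tests, as recorded in the DILIps training set used for predicting drug-induced liver injury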; as to HepSE hepatic failure: call rule not given here;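 as to HepSE hepatomegaly: hepatic side effect score for hepatomegaly, taken from the training set of the DILIps drug-induced liver injury prediction system; call rule not given here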
# Hepatotoxicity [2] = test system: Hepatotoxicity; remark: listed apart in the source;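 as to HepSE bilirubinemia: bilirubinemia hepatic side effect score drawn from the DILIps training data, a prediction system for drug-induced liver injury; call rule not given here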;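 as to HepSE cholecystitis: Cholecystitis-related hepatic side effect score drawn from the DILIps (drug-induced liver injury prediction) training data set; call rule not given here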;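 as to HepSE cholelithiasis: hepatic side effect score for cholelithiasis, drawn from the DILIps training data for predicting drug-induced liver injury; call rule not given here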;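 as to HepSE cirrhosis: cirrhosis hepatic side effect score taken from the DILIps (drug-induced liver injury prediction) training set; call rule not given here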;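 as to HepSE elevated liver function tests: hepatic side effect score for raised liver function tests, as recorded in the DILIps training set used for predicting drug-induced liver injury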; as to HepSE hepatic failure: call rule not given here
# Hepatotoxicity [3] = test system: Hepatotoxicity; remark: listed apart in the source;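 as to HepSE bilirubinemia: bilirubinemia hepatic side effect score drawn from the DILIps training data, a prediction system for drug-induced liver injury; call rule not given here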;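 as to HepSE cholecystitis: Cholecystitis-related hepatic side effect score drawn from the DILIps (drug-induced liver injury prediction) training data set; call rule not given here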;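 as to HepSE cholelithiasis: hepatic side effect score for cholelithiasis, drawn from the DILIps training data for predicting drug-induced liver injury; call rule not given here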;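 as to HepSE cirrhosis: cirrhosis hepatic side effect score taken from the DILIps (drug-induced liver injury prediction) training set; call rule not given here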;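 as to HepSE elevated liver function tests: hepatic side effect score for raised liver function tests, as recorded in the DILIps training set used for predicting drug-induced liver injury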; as to HepSE hepatic failure: call rule not given here
# Hepatotoxicity [4] = test system: Hepatotoxicity; remark: listed apart in the source;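 as to HepSE bilirubinemia: bilirubinemia hepatic side effect score drawn from the DILIps training data, a prediction system for drug-induced liver injury; call rule not given here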;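 as to HepSE cholecystitis: Cholecystitis-related hepatic side effect score drawn from the DILIps (drug-induced liver injury prediction) training data set; call rule not given here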;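 as to HepSE cholelithiasis: hepatic side effect score for cholelithiasis, drawn from the DILIps training data for predicting drug-induced liver injury; call rule not given here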;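 as to HepSE cirrhosis: cirrhosis hepatic side effect score taken from the DILIps (drug-induced liver injury prediction) training set; call rule not given here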;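 as to HepSE elevated liver function tests: hepatic side effect score for raised liver function tests, as recorded in the DILIps training set used for predicting drug-induced liver injury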; as to HepSE hepatic failure: call rule not given here
# Hepatotoxicity [5] = test system: Hepatotoxicity; remark: listed apart in the source; as to HepSE hepatic failure: call rule not given here
# Hepatotoxicity [6] = test system: Hepatotoxicity; remark: listed apart in the source; as to HepSE hepatic failure: call rule not given here
# Hepatotoxicity [7] = test system: Hepatotoxicity; remark: listed apart in the source
# Hepatotoxicity [8] = test system: Hepatotoxicity; remark: listed apart in the source
# Hepatotoxicity [9] = test system: Hepatotoxicity; remark: listed apart in the source
# Hepatotoxicity [10] = test system: Hepatotoxicity; remark: listed apart in the source
# Hepatotoxicity [11] = test system: Hepatotoxicity; remark: listed apart in the source
# Hepatotoxicity [12] = test system: Hepatotoxicity; remark: listed apart in the source
# Hepatotoxicity [13] = test system: Hepatotoxicity; remark: listed apart in the source
# Hepatotoxicity [14] = test system: Hepatotoxicity; remark: listed apart in the source
Compound,HepSE_bilirubinemia (Hepatotoxicity [1]),HepSE_cholecystitis (Hepatotoxicity [2]),HepSE_cholelithiasis (Hepatotoxicity [3]),HepSE_cirrhosis (Hepatotoxicity [4]),HepSE_elevated liver function tests (Hepatotoxicity [5]),HepSE_hepatic failure (Hepatotoxicity [6]),HepSE_hepatic necrosis (Hepatotoxicity [7]),HepSE_hepatitis (Hepatotoxicity [8]),HepSE_hepatomegaly (Hepatotoxicity [9]),HepSE_jaundice (Hepatotoxicity [10]),HepSE_liver disease (Hepatotoxicity [11]),HepSE_liver fatty (Hepatotoxicity [12]),HepSE_liver function tests abnormal (Hepatotoxicity [13]),HepSE_Combined Scores (Hepatotoxicity [14])
N[C@@H](Cc1c[nH]c2ccccc12)C(=O)O [TRYPTOPHAN],0,0,0,0,0,0,0,0,0,0,0,0,0,0
CCCCCCCC(=O)CC[C@@H]1[C@@H](C/C=C\CCCC(=O)O)[C@@H](O)C[C@H]1O [UNOPROSTONE],0,0,0,0,0,0,0,0,0,0,0,0,0,0
C[C@H](CCC(=O)O)[C@H]1CC[C@H]2[C@@H]3[C@@H](O)C[C@@H]4C[C@H](O)CC[C@]4(C)[C@H]3CC[C@]12C [URSODIOL],0,1,0,0,0,0,0,0,0,0,0,0,0,1
CC(C)[C@H](N)C(=O)OCCOCn1cnc2c(=O)[nH]c(N)nc21 [VALACYCLOVIR],0,0,0,0,0,0,0,1,0,0,0,0,0,1
Cc1onc(-c2ccccc2)c1-c1ccc(S(N)(=O)=O)cc1 [VALDECOXIB],0,0,1,0,0,0,0,1,0,0,0,0,0,2
CC(C)[C@H](N)C(=O)OCC(CO)OCn1cnc2c(=O)nc(N)[nH]c21 (some centres not stated) [VALGANCICLOVIR],0,0,0,0,0,0,0,1,0,1,0,0,0,2
CCCCC(=O)OCC(=O)[C@]1(O)Cc2c(O)c3c(c(O)c2[C@@H](O[C@H]2C[C@H](NC(=O)C(F)(F)F)[C@H](O)[C@H](C)O2)C1)C(=O)c1c(OC)cccc1C3=O [VALRUBICIN],0,0,0,0,0,0,0,0,0,0,0,0,0,0
CN[C@H](CC(C)C)C(=O)N[C@H]1C(=O)N[C@@H](CC(N)=O)C(=O)N[C@H]2C(=O)N[C@H]3C(=O)N[C@H](C(=O)N[C@H](C(=O)O)c4cc(O)cc(O)c4-c4cc3ccc4O)[C@H](O)c3ccc(c(Cl)c3)Oc3cc2cc(c3O[C@@H]2O[C@H](CO)[C@@H](O)[C@H](O)[C@H]2O[C@H]2C[C@](C)(N)[C@H](O)[C@H](C)O2)Oc2ccc(cc2Cl)[C@H]1O [VANCOMYCIN],0,0,0,0,0,0,0,0,0,0,0,0,0,0
